Measurements from patent publication US20240374581A1, “SALT TYPES OF TRICYCLIC TETRAHYDRO ISOQUINOLINE DERIVATIVE” (JIANGSU HENGRUI PHARMACEUTICALS CO., LTD., priority 2021, published 2024).

Columns and labels:
[1] = target: CYP3A4 (Homo sapiens (Human), UniProt P08684); assay: Inhibition of site of metabolism of midazolam in human liver microsome CYP3A4; format: in vitro ADME; conditions: 30 min
Description: • 1. Phosphate buffer (20×PBS, purchased from Sangon); • 2. NADPH (ACROS, A2646-71-1); • 3. Human liver microsome (Corning Gentest, Cat No. 452161, Lot No. 9050002, Donor, 36); • 4. ABI QTrap 4000 LC-MS System (AB Sciex); • 5. ZORBAX Extend-C18, 3×50 mm, 3.5 m (Agilent, USA); • 6. CYP probe substrate (midazolam, TRC, M343000/3 μM) and positive control inhibitor (ketoconazole, SIGMA, Cat No. K1003-100MG).
A 100 mM PBS buffer was prepared. A 0.25 mg/mL microsome solution, a 7.5 mM MgCl2 and a 5 mM NADPH solution were prepared using the buffer. A 30 mM stock solution was diluted with DMSO to obtain 30 mM, 10 mM, 3 mM, 1 mM, 0.3 mM, 0.03 mM, 0.003 mM and 0 mM serial solutions I, which were further diluted 200-fold with phosphate buffer (PBS) to obtain serial test solutions II (150, 50, 15, 5, 1.5, 0.15, 0.015 and 0 μM). A midazolam working solution was diluted with PBS to 15 μM. 40 μL of a 0.25 mg/mL microsome solution prepared in 7.5 mM MgCl2 and 20 μL of each of the […] midazolam working solution and the compound working solutions (150, 50, 15, 5, 1.5, 0.15, 0.015 and 0 μM) were measured out and well mixed. Ketoconazole at the same concentration was used in place of the compound as a positive control group. […]
The IC50 value of the drug for the site of metabolism of midazolam in CYP3A4 was calculated by Graphpad Prism and is shown in Table 5.

[2] = Influencing factor stability study
[3] = target: ERα (Homo sapiens (Human), UniProt P03372); assay: Degradation of ERα in MCF-7 cells (ELISA); format: cell-based; conditions: 16 to 18 h, read-out: EC50, degradation of ERα
ERα, sequence (P03372 whole entry): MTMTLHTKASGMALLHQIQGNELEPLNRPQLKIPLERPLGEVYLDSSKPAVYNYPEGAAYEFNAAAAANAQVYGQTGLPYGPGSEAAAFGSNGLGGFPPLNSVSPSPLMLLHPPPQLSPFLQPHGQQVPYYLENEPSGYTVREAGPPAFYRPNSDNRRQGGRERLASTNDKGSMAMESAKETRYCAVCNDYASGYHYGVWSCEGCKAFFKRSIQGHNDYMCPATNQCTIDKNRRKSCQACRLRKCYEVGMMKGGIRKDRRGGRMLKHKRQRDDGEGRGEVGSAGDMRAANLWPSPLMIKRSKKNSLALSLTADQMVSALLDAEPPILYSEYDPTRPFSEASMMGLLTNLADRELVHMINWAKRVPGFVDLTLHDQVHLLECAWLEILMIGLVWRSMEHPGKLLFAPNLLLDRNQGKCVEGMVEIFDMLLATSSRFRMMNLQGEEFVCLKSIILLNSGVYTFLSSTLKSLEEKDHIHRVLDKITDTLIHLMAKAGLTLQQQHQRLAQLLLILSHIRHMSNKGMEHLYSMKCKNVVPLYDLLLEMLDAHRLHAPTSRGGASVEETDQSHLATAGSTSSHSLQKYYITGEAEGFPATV
Description: ERα-positive breast cancer cell line MCF-7 cells were cultured in a DMEM/F12 medium (HyClone, SH30023.01) containing 10% fetal bovine serum (Corning, 35-010-CV). […] The 48-well plate was placed in the incubator for 16 to 18 h. A 96-well plate was coated with the capture antibody from the human ERα/NR3A1 total protein assay kit (R&D, DYC5715-5). […] The plate was placed in an incubator at 26° C. overnight. On day 3, the antibody-coated 96-well plate was washed once with PBS, and 200 μL of PBS containing 1% BSA was added to each well. The plate was incubated in an incubator at 37° C. for 1.5 h to be blocked. The cell culture medium supernatant was discarded. […] A biotinylated assay antibody was diluted to 0.4 μg/mL with PBS containing 1% BSA, and then 100 μL of the assay antibody was added to each well. The plate was incubated in an incubator at 37° C. for 1 h. The plate was then washed five more times, and 100 μL of avidin-HRP diluted 200-fold with PBS containing 1% BSA was added to each well. The plate was incubated at 37° C. for 30 min.

CYP3A4, sequence (P08684 whole entry): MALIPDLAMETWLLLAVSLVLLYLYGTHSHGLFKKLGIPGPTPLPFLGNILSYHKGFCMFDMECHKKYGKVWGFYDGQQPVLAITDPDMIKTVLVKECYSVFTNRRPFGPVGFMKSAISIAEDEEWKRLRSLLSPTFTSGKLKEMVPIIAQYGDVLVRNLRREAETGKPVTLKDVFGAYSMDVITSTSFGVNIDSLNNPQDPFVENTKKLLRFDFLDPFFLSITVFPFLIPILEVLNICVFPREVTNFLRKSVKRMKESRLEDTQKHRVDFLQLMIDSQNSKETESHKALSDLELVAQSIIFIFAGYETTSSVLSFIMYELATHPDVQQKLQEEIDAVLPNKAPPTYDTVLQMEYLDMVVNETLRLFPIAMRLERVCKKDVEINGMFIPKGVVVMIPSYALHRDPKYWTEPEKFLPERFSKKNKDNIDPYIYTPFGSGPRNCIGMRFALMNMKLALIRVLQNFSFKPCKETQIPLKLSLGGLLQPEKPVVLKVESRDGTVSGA

## [2H]C1([2H])Oc2cc3c(cc2O1)[C@@H](c1ccc(NC2CN(CCCF)C2)cn1)N(CC(F)(F)CO)[C@H](C)C3 [Compound 1, 2,2-Difluoro-3-((5S,7R)-5-(5-((1-(3-fluoropropyl)azetidin-3-yl)amino)pyridin-2-yl)-7-methyl-7,8-dihydro-[1,3]dioxolo[4,5-g]isoquinolin-6(5H)-yl-2,2-d2)propan-1-ol]
[1]
  IC50: 15.4 µM
[2]; 40° C., 1 month
  Crystal form: Amorphous form
  Purity (%): 95.4%
[2]; 40° C., 5 days
  Crystal form: Amorphous form
  Purity (%): 96.7%
[2]; 40° C., 10 days
  Crystal form: Amorphous form
  Purity (%): 96.5%
[2]; 60° C., 1 month
  Crystal form: Amorphous form
  Purity (%): 87.6%
[2]; 60° C., 5 days
  Crystal form: Amorphous form
  Purity (%): 95.7%
[2]; 60° C., 10 days
  Crystal form: Amorphous form
  Purity (%): 94.2%
[2]; 75% RH and 92.5% RH, 30 days
  behaviour under the high-humidity conditions (conclusion): deliquesced
[2]; 75% RH, 1 month
  Crystal form: Deliquescence
  Purity (%): 96.9%
[2]; 75% RH, 5 days
  Crystal form: Amorphous form
  Purity (%): 97.0%
[2]; 75% RH, 10 days
  Crystal form: Amorphous form
  Purity (%): 97.0%
[2]; 92.5% RH, 1 month
  Crystal form: Deliquescence
  Purity (%): 97.0%
[2]; 92.5% RH, 5 days
  Crystal form: Amorphous form
  Purity (%): 96.9%
[2]; 92.5% RH, 10 days
  Crystal form: Amorphous form
  Purity (%): 97.0%
[2]; 4500 Lux, 1 month
  Crystal form: Amorphous form
  Purity (%): 71.7%
[2]; 4500 Lux, 5 days
  Crystal form: Amorphous form
  Purity (%): 94.0%
[2]; 4500 Lux, 10 days
  Crystal form: Amorphous form
  Purity (%): 89.9%
[2]; Initial, 0 days
  Crystal form: Amorphous form
  Purity (%): 97.1%
[3]
  DC50: 0.00038 µM
